Article PMC6270165, “Synthesis and Biological Evaluation of 3-Benzisoxazolyl-4-indolylmaleimides as Potent, Selective Inhibitors of Glycogen Synthase Kinase-3β” (Molecules, 2013)

Experiments:
Assay type in all cases: biochemical
GSK-3β = target: T1, GSK-3β (Homo sapiens, UniProt P49841); test: GSK-3β kinase assay (Z'-LYTE Kinase Assay kit Ser/Thr 9 Peptide); details: for IC50: 50 nM enzyme, 30 μM ATP, 2 μM substrate peptide, triplicate, mean ± SE, read-out: GSK-3β inhibitory activity IC50 (nM) ± SE; for Selectivity for GSK-3β over other tested kinases: versus PKC-epsilon, JAK2, BRAF, IKK2 and Drak2
T1 construct: GST (N, cleaved yes); made in house; host or cells: Escherichia coli BL21-Codon Plus (DE3)
T1 sequence (P49841 whole entry): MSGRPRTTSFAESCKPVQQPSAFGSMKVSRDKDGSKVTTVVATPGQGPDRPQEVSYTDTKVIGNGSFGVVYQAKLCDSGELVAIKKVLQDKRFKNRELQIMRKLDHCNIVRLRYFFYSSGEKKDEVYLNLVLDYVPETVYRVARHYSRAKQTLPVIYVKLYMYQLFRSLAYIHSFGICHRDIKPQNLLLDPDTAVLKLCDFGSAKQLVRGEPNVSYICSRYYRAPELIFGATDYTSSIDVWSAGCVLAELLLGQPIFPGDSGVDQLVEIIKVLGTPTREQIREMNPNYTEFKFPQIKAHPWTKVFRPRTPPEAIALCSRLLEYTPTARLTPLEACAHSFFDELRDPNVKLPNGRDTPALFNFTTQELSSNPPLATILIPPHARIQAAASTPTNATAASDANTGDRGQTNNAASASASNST
Experimental: (§1) GSK3β belongs to CMGC family. Here, the other family members were used to evaluate the selectivity of GSK3β inhibitors, including PKC-epsilon (AGC family), JAK2 (TK family), Braf (TKL family), DRAK2 (CAMK family) and IKKβ (other family).The recombinant GST-GSK-3βprotein was expressed in Escherichia coli strain BL21-Codon Plus (DE3), purified by GSTrap affinity chromatography, and cleaved by thrombin. The GSK-3β kinase assay was carried out with the Z´-LYTETM Kinase Assay kit Ser/Thr 9 Peptide substrate (Invitrogen, Grand, NY, USA) in 10 μL reaction volume containing 50 nM enzyme, 30 μM ATP and 2 μM substrate peptide. Drak2 Proteins were presented by professor Jiang-ping Wu (Laboratory of Immunology, Research Centre, CHUM, Notre Dame Hospital, Pavilion DeSève). The Drak2 kinase reaction was performed in a final assay volume of 3.4 μL using the ADP-GLO Kinase Assay Kit (Promega, Madison, WI, USA), according the ADP-GLO protocol and read on an EnVision plate reader. The recombinant PKC-epsilon, IKKβ, and JAK2 with N-terminal His-tag were expressed using baculovirus expression system and purified with Ni-Beads. BRAF protein was from Carna Biosciences, Inc. (Kobe Port Island, Japan). And the related kinase reactions were performed in a final assay volume of 10 μL using the related HTRF Assay Kit (Cisbio, Codolet, France). Reactions were according the HTRF protocol and read on an EnVision plate reader. All reactions were carried out in triplicate. […] Data were expressed as mean ± SE.

Drak2 = target: T2, Drak2 (Homo sapiens, UniProt O94768); test: Drak2 kinase assay (ADP-GLO); details: read-out: Drak2 inhibition% at 0.8 μg/mL (~2 μM)
T2 sequence (O94768 1-372): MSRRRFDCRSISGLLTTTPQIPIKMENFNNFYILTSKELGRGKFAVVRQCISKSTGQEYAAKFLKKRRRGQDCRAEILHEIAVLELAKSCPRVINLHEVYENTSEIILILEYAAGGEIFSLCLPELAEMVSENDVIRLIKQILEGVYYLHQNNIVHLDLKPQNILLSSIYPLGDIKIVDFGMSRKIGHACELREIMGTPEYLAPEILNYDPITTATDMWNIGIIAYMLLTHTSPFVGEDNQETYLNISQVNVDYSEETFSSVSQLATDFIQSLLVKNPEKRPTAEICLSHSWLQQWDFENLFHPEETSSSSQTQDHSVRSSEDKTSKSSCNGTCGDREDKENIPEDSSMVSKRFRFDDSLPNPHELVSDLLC
Experimental: as §1

PKC-epsilon = target: T3, PKC-epsilon (Homo sapiens, UniProt Q02156); test: PKC-epsilon kinase assay (HTRF); details: read-out: PKC-epsilon inhibition% at 0.8 μg/mL (~2 μM)
T3 construct: His-tag (N); made in house
T3 sequence (Q02156 1-737): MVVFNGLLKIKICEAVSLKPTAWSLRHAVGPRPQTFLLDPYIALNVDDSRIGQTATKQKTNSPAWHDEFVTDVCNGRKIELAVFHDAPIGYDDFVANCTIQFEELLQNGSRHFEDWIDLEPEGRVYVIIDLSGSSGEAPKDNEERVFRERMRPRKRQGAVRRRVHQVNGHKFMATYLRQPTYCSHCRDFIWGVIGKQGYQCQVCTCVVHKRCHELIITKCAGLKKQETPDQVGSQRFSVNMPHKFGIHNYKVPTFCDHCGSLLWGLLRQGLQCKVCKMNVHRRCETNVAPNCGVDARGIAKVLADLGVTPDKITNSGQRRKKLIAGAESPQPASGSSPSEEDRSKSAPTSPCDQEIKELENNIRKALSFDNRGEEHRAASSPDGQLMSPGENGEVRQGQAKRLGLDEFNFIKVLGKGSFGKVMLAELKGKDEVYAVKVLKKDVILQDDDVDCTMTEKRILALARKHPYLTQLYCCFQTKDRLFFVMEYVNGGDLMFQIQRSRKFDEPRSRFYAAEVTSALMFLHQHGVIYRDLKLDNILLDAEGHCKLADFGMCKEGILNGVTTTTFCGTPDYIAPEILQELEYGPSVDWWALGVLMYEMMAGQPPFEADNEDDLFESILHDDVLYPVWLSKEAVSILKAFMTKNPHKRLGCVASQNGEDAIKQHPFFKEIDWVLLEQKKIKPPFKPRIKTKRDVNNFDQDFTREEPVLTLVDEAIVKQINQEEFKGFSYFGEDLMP
Experimental: as §1

IKK2 = target: T4, IKK2 (Homo sapiens, UniProt O14920); test: IKK2 (IKKβ) kinase assay (HTRF); details: read-out: IKK2 inhibition% at 0.8 μg/mL (~2 μM)
T4 construct: His-tag (N); made in house
T4 sequence (O14920 1-756): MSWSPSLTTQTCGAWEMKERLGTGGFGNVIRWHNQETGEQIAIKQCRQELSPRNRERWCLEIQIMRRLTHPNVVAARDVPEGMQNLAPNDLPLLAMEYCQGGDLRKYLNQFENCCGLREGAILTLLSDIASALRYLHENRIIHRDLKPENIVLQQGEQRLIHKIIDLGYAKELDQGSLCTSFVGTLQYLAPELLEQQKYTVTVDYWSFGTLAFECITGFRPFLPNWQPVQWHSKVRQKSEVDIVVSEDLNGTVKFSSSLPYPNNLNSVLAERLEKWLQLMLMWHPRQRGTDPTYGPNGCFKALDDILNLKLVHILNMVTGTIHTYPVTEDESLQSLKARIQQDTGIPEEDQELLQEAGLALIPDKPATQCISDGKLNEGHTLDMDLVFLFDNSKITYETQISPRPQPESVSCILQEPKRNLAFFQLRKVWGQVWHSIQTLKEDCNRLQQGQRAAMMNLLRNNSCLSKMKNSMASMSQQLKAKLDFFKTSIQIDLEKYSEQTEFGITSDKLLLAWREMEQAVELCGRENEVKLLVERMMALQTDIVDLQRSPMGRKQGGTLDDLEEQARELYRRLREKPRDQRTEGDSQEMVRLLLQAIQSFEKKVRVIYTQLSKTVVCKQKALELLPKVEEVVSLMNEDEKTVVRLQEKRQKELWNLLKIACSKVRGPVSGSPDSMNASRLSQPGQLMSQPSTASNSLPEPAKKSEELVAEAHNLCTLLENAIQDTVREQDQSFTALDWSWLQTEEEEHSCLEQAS
Experimental: as §1

JAK2 = target: T5, JAK2 (Homo sapiens, UniProt O60674); test: JAK2 kinase assay (HTRF); details: read-out: JAK2 inhibition% at 0.8 μg/mL (~2 μM)
T5 construct: His-tag (N); made in house
T5 sequence (O60674 whole entry): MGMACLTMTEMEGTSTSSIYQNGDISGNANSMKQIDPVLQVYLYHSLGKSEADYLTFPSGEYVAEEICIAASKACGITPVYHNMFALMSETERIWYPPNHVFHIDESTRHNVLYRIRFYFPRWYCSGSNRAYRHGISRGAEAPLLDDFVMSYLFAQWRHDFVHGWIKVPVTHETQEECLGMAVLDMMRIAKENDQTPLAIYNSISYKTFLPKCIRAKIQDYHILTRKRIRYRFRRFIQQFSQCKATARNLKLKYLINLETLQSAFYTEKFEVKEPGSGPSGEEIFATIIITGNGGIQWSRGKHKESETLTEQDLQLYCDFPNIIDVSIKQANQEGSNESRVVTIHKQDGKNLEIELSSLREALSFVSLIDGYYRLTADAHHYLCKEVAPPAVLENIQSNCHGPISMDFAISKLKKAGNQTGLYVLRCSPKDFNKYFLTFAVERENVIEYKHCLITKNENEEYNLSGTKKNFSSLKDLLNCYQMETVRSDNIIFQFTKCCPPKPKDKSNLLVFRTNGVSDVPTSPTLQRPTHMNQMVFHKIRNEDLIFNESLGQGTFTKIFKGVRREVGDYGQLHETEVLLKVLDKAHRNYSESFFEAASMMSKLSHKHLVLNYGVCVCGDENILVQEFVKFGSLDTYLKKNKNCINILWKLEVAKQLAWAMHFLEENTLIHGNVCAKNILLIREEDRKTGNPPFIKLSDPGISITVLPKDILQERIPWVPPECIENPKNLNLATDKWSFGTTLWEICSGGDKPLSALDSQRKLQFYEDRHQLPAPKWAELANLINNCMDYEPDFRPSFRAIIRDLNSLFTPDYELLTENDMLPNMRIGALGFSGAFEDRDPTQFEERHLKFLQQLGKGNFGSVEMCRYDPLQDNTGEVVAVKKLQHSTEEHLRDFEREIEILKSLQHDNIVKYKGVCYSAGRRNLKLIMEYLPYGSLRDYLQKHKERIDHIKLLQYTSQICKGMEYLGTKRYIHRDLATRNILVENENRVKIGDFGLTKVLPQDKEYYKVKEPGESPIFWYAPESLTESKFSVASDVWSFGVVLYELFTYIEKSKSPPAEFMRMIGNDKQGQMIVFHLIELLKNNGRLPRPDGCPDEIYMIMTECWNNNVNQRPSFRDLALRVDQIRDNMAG
Experimental: as §1

BRAF = target: T6, BRAF (Homo sapiens, UniProt P15056); test: BRAF kinase assay (HTRF); details: read-out: BRAF inhibition% at 0.8 μg/mL (~2 μM)
T6 construct: purchased Carna Biosciences, Inc
T6 sequence (P15056 whole entry): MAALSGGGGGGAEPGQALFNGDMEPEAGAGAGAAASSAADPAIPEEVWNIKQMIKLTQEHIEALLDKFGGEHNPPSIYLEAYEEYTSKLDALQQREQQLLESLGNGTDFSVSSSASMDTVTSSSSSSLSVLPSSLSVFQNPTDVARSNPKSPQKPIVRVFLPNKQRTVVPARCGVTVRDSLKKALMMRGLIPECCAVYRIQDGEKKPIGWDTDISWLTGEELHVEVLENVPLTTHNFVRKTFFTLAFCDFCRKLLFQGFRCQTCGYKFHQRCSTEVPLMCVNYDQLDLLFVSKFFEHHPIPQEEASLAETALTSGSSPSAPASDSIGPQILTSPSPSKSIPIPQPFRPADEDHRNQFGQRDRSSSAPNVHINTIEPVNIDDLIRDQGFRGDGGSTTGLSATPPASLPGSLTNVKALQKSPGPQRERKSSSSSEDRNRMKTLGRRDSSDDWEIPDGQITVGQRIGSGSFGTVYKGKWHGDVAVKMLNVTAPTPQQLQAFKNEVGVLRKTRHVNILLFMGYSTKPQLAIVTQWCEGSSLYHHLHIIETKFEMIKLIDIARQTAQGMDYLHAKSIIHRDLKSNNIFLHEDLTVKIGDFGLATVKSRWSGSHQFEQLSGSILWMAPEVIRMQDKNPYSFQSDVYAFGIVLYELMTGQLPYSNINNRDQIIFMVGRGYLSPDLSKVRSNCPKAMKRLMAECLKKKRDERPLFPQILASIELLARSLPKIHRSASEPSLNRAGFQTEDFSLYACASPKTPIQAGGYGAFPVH
Experimental: as §1

Row | SMILES | IC50 (GSK-3β) [nM] | also measured
1 | O=C1NC(=O)C(c2noc3ccccc23)=C1c1c[nH]c2ccccc12 [7a, 3-(Benzo[d]isoxazol-3-yl)-4-(1H-indol-3-yl)-1H-pyrrole-2,5-dione] | 332 ± 25.7 | –
2 | COc1ccc2c(c1)c(C1=C(c3noc4ccccc34)C(=O)NC1=O)cn2CCCN1CCOCC1 [7b, 3-(Benzo[d]isoxazol-3-yl)-4-(5-methoxy-1-(3-morpholinopropyl)-1H-indol-3-yl)-1H-pyrrole-2,5-dione] | 357 ± 17.1 | –
3 | O=C1NC(=O)C(c2cn(CCCN3CCOCC3)c3cc(Br)ccc23)=C1c1noc2ccccc12 [7d, 3-(Benzo[d]isoxazol-3-yl)-4-(6-bromo-1-(3-morpholinopropyl)-1H-indol-3-yl)-1H-pyrrole-2,5-dione] | 210 ± 8.9 | –
4 | O=C1NC(=O)C(c2cn(CCCN3CCOCC3)c3cc(Cl)ccc23)=C1c1noc2ccccc12 [7e, 3-(Benzo[d]isoxazol-3-yl)-4-(6-chloro-1-(3-morpholinopropyl)-1H-indol-3-yl)-1H-pyrrole-2,5-dione] | 510 ± 20.1 | –
5 | O=C1NC(=O)C(c2cn(CCN3CCOCC3)c3ccccc23)=C1c1noc2ccccc12 [7g, 3-(Benzo[d]isoxazol-3-yl)-4-(1-(2-morpholinoethyl)-1H-indol-3-yl)-1H-pyrrole-2,5-dione] | 615.6 ± 6.1 | –
6 | O=C1NC(=O)C(c2cn(CCCN3CCOCC3)c3ccccc23)=C1c1noc2ccccc12 [7h, 3-(Benzo[d]isoxazol-3-yl)-4-(1-(3-morpholinopropyl)-1H-indol-3-yl)-1H-pyrrole-2,5-dione] | 138 ± 6 | –
7 | O=C1NC(=O)C(c2cn(CCCCN3CCOCC3)c3ccccc23)=C1c1noc2ccccc12 [7i, 3-(Benzo[d]isoxazol-3-yl)-4-(1-(4-morpholinobutyl)-1H-indol-3-yl)-1H-pyrrole-2,5-dione] | 411 ± 8.2 | –
8 | O=C1NC(=O)C(c2cn(CCCn3ccnc3)c3ccccc23)=C1c1noc2ccccc12 [7j, 3-(1-(3-(1H-Imidazol-1-yl)propyl)-1H-indol-3-yl)-4-(benzo[d]isoxazol-3-yl)-1H-pyrrole-2,5-dione] | 0.73 ± 0.02 | inhibition at 2 µM (Drak2): 4.47%; inhibition at 2 µM (PKC-epsilon): 10.9%; inhibition at 2 µM (IKK2): 3.5%; inhibition at 2 µM (JAK2): 4.9%; GSK-3β inhibitory potency, fold more potent than compound 7a (GSK-3β; ratio of IC50 values, versus 7a): about 460 fold; Selectivity for GSK-3β over other tested kinases (GSK-3β): high selectivity; inhibition at 2 µM (BRAF): 0.8%
9 | O=C1NC(=O)C(c2cn(CCCCn3ccnc3)c3ccccc23)=C1c1noc2ccccc12 [7k, 3-(1-(4-(1H-Imidazol-1-yl)butyl)-1H-indol-3-yl)-4-(benzo[d]isoxazol-3-yl)-1H-pyrrole-2,5-dione] | 89.8 ± 4.5 | –
10 | O=C1NC(=O)C(c2cn(CCCn3cncn3)c3ccccc23)=C1c1noc2ccccc12 [7l, 3-(1-(3-(1H-1,2,4-Triazol-1-yl)propyl)-1H-indol-3-yl)-4-(benzo[d]isoxazol-3-yl)-1H-pyrrole-2,5-dione] | 20.9 ± 5.1 | –
11 | O=C1NC(=O)C(c2cn(CCCN3CCCCC3)c3ccccc23)=C1c1noc2ccccc12 [7m, 3-(Benzo[d]isoxazol-3-yl)-4-(1-(3-(piperidin-1-yl)propyl)-1H-indol-3-yl)-1H-pyrrole-2,5-dione] | 512 ± 15.6 | –
12 | O=C1NC(=O)C(c2cn(CCCN3CCCC3)c3ccccc23)=C1c1noc2ccccc12 [7n, 3-(Benzo[d]isoxazol-3-yl)-4-(1-(3-(pyrrolidin-1-yl)propyl)-1H-indol-3-yl)-1H-pyrrole-2,5-dione] | 659 ± 15.7 | –
13 | Cn1cc(C2=C(c3noc4ccccc34)C(=O)NC2=O)c2ccccc21 [7o, 3-(Benzo[d]isoxazol-3-yl)-4-(1-methyl-1H-indol-3-yl)-1H-pyrrole-2,5-dione] | 22.1 ± 1.5 | inhibition at 2 µM (Drak2): 13.8%; inhibition at 2 µM (PKC-epsilon): 21.2%; inhibition at 2 µM (IKK2): 2.9%; inhibition at 2 µM (JAK2): 9.4%; Selectivity for GSK-3β over other tested kinases (GSK-3β): high selectivity; inhibition at 2 µM (BRAF): 1.1%
14 | CCCCn1cc(C2=C(c3noc4ccccc34)C(=O)NC2=O)c2ccccc21 [7p, 3-(Benzo[d]isoxazol-3-yl)-4-(1-butyl-1H-indol-3-yl)-1H-pyrrole-2,5-dione] | 58.7 ± 2.8 | –
15 | O=C1NC(=O)C(c2cn(CCCO)c3ccccc23)=C1c1noc2ccccc12 [7q, 3-(Benzo[d]isoxazol-3-yl)-4-(1-(3-hydroxypropyl)-1H-indol-3-yl)-1H-pyrrole-2,5-dione] | 38.9 ± 2.6 | –
